Test results taken from US20100267561A1, “HERBICIDAL PYRIDAZINONE DERIVATIVES” (priority 2007, published 2010).

Assays:
Test in all cases: Test B pre-/postemergence plant response
Assay type in all cases: in vivo
[1] = test system: pigweed (Amaranthus retroflexus); settings: for Pigweed plant response rating: postemergence, 0-100 scale; for Plant response rating, Pigweed: Postemergence
Description: (§1) Seeds of plant species selected from blackgrass (Alopecurus myosuroides), downy bromegrass (Bromus tectorum), green foxtail (Setaria viridis), Italian ryegrass (Lolium multiflorum), wheat (Triticum aestivum), wild oat (Avena fatua), catchweed bedstraw (Galium aparine), bermudagrass (Cynodon dactylon), surinam grass (Brachiaria decumbens), cocklebur (Xanthium strumarium), corn (Zea mays), large crabgrass (Digitaria sanguinalis), woolly cupgrass (Eriochloa villosa), giant foxtail (Setaria faberii), goosegrass (Eleusine indica), johnsongrass (Sorghum halepense), kochia (Kochia scoparia), lambsquarters (Chenopodium album), morningglory (Ipomoea coccinea), eastern black (E.B.) nightshade (Solanum ptycanthum), yellow nutsedge (Cyperus esculentus), pigweed (Amaranthus retroflexus), common ragweed (Ambrosia elation), Russian thistle (Salsola iberica), soybean (Glycine max), common (oilseed) sunflower (Helianthus annuus), and velvetleaf (Abutilon theophrasti) were planted and treated preemergence with test chemicals formulated in a non-phytotoxic solvent mixture which included a surfactant.
(§2) At the same time, plants selected from these crop and weed species and also winter barley (Hordeum vulgare), canarygrass (Phalaris minor), chickweed (Stellaria media) and windgrass (Apera spica-venti) were treated with postemergence applications of some of the test chemicals formulated in the same manner. Plants ranged in height from 2 to 18 cm (1- to 4-leaf stage) for postemergence treatments.
(§3) Plant species in the flooded paddy test consisted of rice (Oryza sativa), umbrella sedge (Cyperus difformis), ducksalad (Heteranthera limosa) and barnyardgrass (Echinochloa crus-galli) grown to the 2-leaf stage for testing. At time of treatment, test pots were flooded to 3 cm above the soil surface, treated by application of test compounds directly to the paddy water, and then maintained at that water depth for the duration of the test. Treated plants and controls were maintained in a greenhouse for 13 to 15 days, after which time all species were compared to controls and visually evaluated. Plant response ratings, summarized in Table B, are based on a scale of 0 to 100 where 0 is no effect and 100 is complete control. A dash (-) response means no test result.

[2] = test system: corn (Zea mays); settings: for Plant response rating, Corn: Postemergence
Description: as §1, §2, §3

[3] = test system: soybean (Glycine max); settings: for Soybean plant response rating: postemergence, 0-100 scale; for Plant response rating, Soybean: Postemergence
Description: as §1, §2, §3

[4] = test system: green foxtail (Setaria viridis); settings: for Plant response rating, Foxtail, Green: Postemergence
Description: as §1, §2, §3

[5] = test system: morningglory (Ipomoea coccinea); settings: for Morningglory plant response rating: postemergence, 0-100 scale; for Plant response rating, Morningglory: Postemergence
Description: as §1, §2, §3

[6] = test system: bermudagrass (Cynodon dactylon); settings: for Plant response rating, Bermudagrass: Postemergence
Description: as §1, §2, §3

[7] = test system: downy bromegrass (Bromus tectorum); settings: for Plant response rating, Bromegrass, Downy: Postemergence
Description: as §1, §2, §3

[8] = test system: kochia (Kochia scoparia); settings: for Kochia plant response rating: postemergence, 0-100 scale; for Plant response rating, Kochia: Postemergence
Description: as §1, §2, §3

[9] = test system: Italian ryegrass (Lolium multiflorum); settings: for Ryegrass, Italian plant response rating: postemergence, 0-100 scale; for Plant response rating, Ryegrass, Italian: Postemergence
Description: as §1, §2, §3

[10] = test system: woolly cupgrass (Eriochloa villosa); settings: for Plant response rating, Cupgrass, Woolly: Postemergence
Description: as §1, §2, §3

[11] = test system: surinam grass (Brachiaria decumbens); settings: for Surinam Grass plant response rating: postemergence, 0-100 scale; for Plant response rating, Surinam Grass: Postemergence
Description: as §1, §2, §3

[12] = test system: velvetleaf (Abutilon theophrasti); settings: for Velvetleaf plant response rating: postemergence, 0-100 scale; for Plant response rating, Velvetleaf: Postemergence
Description: as §1, §2, §3

[13] = 62 g ai/ha, scale 0 to 100, 0 no effect, 100 complete control
[14] = 8 g ai/ha, postemergence, 0-100 scale

COCc1cc(-c2ccc(Br)cc2)nn1-c1c(O)cnn(C)c1=O [Compound 68]
Pigweed plant response rating ([1]; 8 g ai/ha): 0 | Pigweed plant response rating ([1]; 16 g ai/ha): 0 | Plant response rating, Pigweed ([1]; 31 g ai/ha, scale 0 to 100): 0 | Plant response rating, Pigweed [1, 13]: 0 | Corn plant response rating [2, 14]: 0 | Plant response rating, Corn ([2]; 16 g ai/ha, scale 0 to 100): 0 | Plant response rating, Corn ([2]; 31 g ai/ha, scale 0 to 100): 30 | Plant response rating, Corn [2, 13]: 95 | Soybean plant response rating ([3]; 8 g ai/ha): 0 | Soybean plant response rating ([3]; 16 g ai/ha): 0 | Plant response rating, Soybean ([3]; 31 g ai/ha, scale 0 to 100): 0 | Plant response rating, Soybean [3, 13]: 0 | Foxtail, Green plant response rating [4, 14]: 10 | Plant response rating, Foxtail, Green ([4]; 16 g ai/ha, scale 0 to 100): 50 | Plant response rating, Foxtail, Green ([4]; 31 g ai/ha, scale 0 to 100): 60 | Plant response rating, Foxtail, Green [4, 13]: 95 | Morningglory plant response rating ([5]; 8 g ai/ha): 0 | Morningglory plant response rating ([5]; 16 g ai/ha): 0 | Plant response rating, Morningglory ([5]; 31 g ai/ha, scale 0 to 100): 0 | Plant response rating, Morningglory [5, 13]: 0 | Bermudagrass plant response rating [6, 14]: 0 | Plant response rating, Bermudagrass ([6]; 16 g ai/ha, scale 0 to 100): 0 | Plant response rating, Bermudagrass ([6]; 31 g ai/ha, scale 0 to 100): 0 | Plant response rating, Bermudagrass [6, 13]: 0 | Bromegrass, Downy plant response rating [7, 14]: 0 | Plant response rating, Bromegrass, Downy ([7]; 16 g ai/ha, scale 0 to 100): 0 | Plant response rating, Bromegrass, Downy ([7]; 31 g ai/ha, scale 0 to 100): 0 | Plant response rating, Bromegrass, Downy [7, 13]: 0 | Kochia plant response rating ([8]; 8 g ai/ha): 0 | Kochia plant response rating ([8]; 16 g ai/ha): 0 | Plant response rating, Kochia ([8]; 31 g ai/ha, scale 0 to 100): 0 | Plant response rating, Kochia [8, 13]: 0 | Ryegrass, Italian plant response rating ([9]; 8 g ai/ha): 0 | Ryegrass, Italian plant response rating ([9]; 16 g ai/ha): 10 | Plant response rating, Ryegrass, Italian ([9]; 31 g ai/ha, scale 0 to 100): 80 | Plant response rating, Ryegrass, Italian [9, 13]: 95 | Cupgrass, Woolly plant response rating [10, 14]: 0 | Plant response rating, Cupgrass, Woolly ([10]; 16 g ai/ha, scale 0 to 100): 0 | Plant response rating, Cupgrass, Woolly ([10]; 31 g ai/ha, scale 0 to 100): 30 | Plant response rating, Cupgrass, Woolly [10, 13]: 60 | Surinam Grass plant response rating ([11]; 8 g ai/ha): 35 | Surinam Grass plant response rating ([11]; 16 g ai/ha): 35 | Plant response rating, Surinam Grass ([11]; 31 g ai/ha, scale 0 to 100): 80 | Plant response rating, Surinam Grass [11, 13]: 80 | Velvetleaf plant response rating ([12]; 8 g ai/ha): 0 | Velvetleaf plant response rating ([12]; 16 g ai/ha): 0 | Plant response rating, Velvetleaf ([12]; 31 g ai/ha, scale 0 to 100): 0 | Plant response rating, Velvetleaf [12, 13]: 0
